pIC50: −log10 of the molar value.
target: T1, Zcchc11 enzyme (Homo sapiens, UniProt Q5TAX3); assay: TUTase assay (Zcchc11 assay, Lin28a-dependent polyuridylation of pre-let-7); type: biochemical; details: Lin28a-dependent Zcchc11 (Z11) TUTase activity; read-out: Potency Lin28a-dep Z11 IC50
T1 construct: made in house; host or cells: HEK293 cells (Zcchc11); E. coli Rosetta II (LIN28A)
T1 sequence (Q5TAX3 212-1420): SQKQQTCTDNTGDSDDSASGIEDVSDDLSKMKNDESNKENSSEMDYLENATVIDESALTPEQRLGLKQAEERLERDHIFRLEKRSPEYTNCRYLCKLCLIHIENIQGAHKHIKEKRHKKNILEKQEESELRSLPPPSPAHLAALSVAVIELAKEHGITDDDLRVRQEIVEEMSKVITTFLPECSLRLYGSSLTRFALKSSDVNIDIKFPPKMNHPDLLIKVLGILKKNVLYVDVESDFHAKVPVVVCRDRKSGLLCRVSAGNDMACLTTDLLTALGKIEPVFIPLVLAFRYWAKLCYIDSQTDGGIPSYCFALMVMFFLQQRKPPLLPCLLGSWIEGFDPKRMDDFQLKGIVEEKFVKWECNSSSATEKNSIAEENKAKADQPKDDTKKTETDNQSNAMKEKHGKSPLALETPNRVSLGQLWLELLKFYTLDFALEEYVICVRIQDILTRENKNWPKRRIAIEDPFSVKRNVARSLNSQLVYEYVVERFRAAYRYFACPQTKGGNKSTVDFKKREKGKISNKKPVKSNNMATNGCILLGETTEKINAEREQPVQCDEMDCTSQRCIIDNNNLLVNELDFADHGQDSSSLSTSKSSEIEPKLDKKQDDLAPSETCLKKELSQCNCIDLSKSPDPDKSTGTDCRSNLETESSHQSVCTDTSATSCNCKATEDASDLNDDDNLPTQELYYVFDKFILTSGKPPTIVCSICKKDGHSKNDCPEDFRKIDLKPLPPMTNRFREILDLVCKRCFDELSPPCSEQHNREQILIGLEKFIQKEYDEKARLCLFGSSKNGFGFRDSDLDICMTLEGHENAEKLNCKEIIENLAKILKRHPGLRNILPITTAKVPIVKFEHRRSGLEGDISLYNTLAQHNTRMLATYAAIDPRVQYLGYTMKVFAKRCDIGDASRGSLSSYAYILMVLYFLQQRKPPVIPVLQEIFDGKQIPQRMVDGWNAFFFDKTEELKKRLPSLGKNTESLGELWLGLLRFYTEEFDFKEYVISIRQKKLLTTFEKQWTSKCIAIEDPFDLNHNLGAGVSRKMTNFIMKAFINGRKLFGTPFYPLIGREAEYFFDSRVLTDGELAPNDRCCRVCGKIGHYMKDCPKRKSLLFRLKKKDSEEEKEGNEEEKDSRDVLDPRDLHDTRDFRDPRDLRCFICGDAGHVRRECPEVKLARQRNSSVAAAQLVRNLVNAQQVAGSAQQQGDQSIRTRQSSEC
In short: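 Polyuridylation measured as fluorescein loss when a rhodamine-labelled A20 probe anneals to U-tails added to fluorescein pre-let-7 (2 nM). Reaction: truncated Zcchc11 0.2 nM, E. coli-made LIN28A 10 nM, UTP 5 uM, HEPES pH 7.3, room temperature. Initial rates fitted to four-parameter IC50.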

| pIC50 | SMILES |
| --- | --- |
| ≥ 6.00 | O=C(O)c1cn(-c2ccc3c(c2F)CCN3)c2cc(N3CCC[C@@H]3COc3ccccn3)c(F)cc2c1=O [Compound 216, 6-Fluoro-1-(4-fluoro-2,3-dihydro-1H-indol-5-yl)-4-oxo-7-[(2R)-2-[(pyridin-2-yloxy)methyl]pyrrolidin-1-yl]quinoline-3-carboxylic acid] |
| ≥ 6.00 | N#Cc1cc2c(=O)c(C(=O)O)cn(-c3ccc(N)nc3)c2cc1N1CCC[C@@H]1COc1ncccc1F [Compound 217] |
| ≥ 6.00 | COCCN(C)C1CN(c2ccc(-n3cc(C(=O)O)c(=O)c4cc(C#N)c(N5CCC[C@@H]5COc5ncccc5Cl)cc43)cn2)C1 [Compound 218, 7-[(2R)-2-[[(3-chloropyridin-2-yl)oxy]methyl]pyrrolidin-1-yl]-6-cyano-1-(6-[3-[(2-methoxyethyl) (methyl)amino]azetidin-1-yl]pyridin-3-yl)-4-oxoquinoline-3-carboxylic acid] |
| 5.00 to 6.00 | CN(C)C1CN(c2ccc(-n3cc(C(=O)O)c(=O)c4cc(Cl)c(N5CCC5COc5ccccn5)cc43)cn2)C1 (stereo not drawn) [Compound 219, 6-chloro-1-[6-[3-(dimethyl-amino)azetidin-1-yl]pyridin-3-yl]-4-oxo-7-[2-[(pyridin-2-yloxy)methyl]azetidin-1-yl]quinoline-3-carboxylic acid] |
| 4.30 to 5.00 | CN(C)C1CN(c2ccc(-n3cc(C(=O)O)c(=O)c4cc(C#N)c(N5C(=O)CC[C@@H]5COc5ncccc5Cl)cc43)cn2)C1 [Compound 220, 7-[(2R)-2-[[(3-chloropyridin-2-yl)oxy]methyl]-5-oxopyrrolidin-1-yl]-6-cyano-1-[6-[3-(dimethyl-amino)azetidin-1-yl]pyridin-3-yl]-4-oxoquinoline-3-carboxylic acid] |
| 5.00 to 6.00 | CN(C)C1CN(c2ccc(-n3cc(C(=O)O)c(=O)c4cc(Cl)c(N5CC6CC5(COc5ncccc5Cl)C6)cc43)cn2)C1 [Compound 221, 6-chloro-7-(1-[[(3-chloropyridin-2-yl)oxy]methyl]-2-azabicyclo [2.1.1]hexan-2-yl)-1-[6-[3-(dimethyl-amino)azetidin-1-yl]pyridin-3-yl]-4-oxoquinoline-3-carboxylic acid] |
| ≥ 6.00 | CN(C)C1CN(c2ccc(-n3cc(C(=O)O)c(=O)c4cc(F)c(N5CCC[C@@H]5COc5ncccc5Cl)cc43)cn2)C1 [Compound 222, 7-[(2R)-2-[[(3-chloropyridin-2-yl)oxy]methyl]pyrrolidin-1-yl]-1-[6-[3-(dimethyl-amino)azetidin-1-yl]pyridin-3-yl]-6-fluoro-4-oxoquinoline-3-carboxylic acid] |
| ≥ 6.00 | CN(C)C1CN(c2ccc(-n3cc(C(=O)O)c(=O)c4cc(Cl)c(N5CC6(CCC6)CC5COc5ncccc5Cl)cc43)cn2)C1 (stereo not drawn) [Compound 226, 6-Chloro-7-(7-(((3-chloropyridin-2-yl)oxy)methyl)-6-azaspiro [3.4]octan-6-yl)-1-(6-(3-(dimethyl-amino)azetidin-1-yl)pyridin-3-yl)-4-oxo-1,4-dihydro-quinoline-3-carboxylic acid compound with formic acid (1:1)] |
| ≥ 6.00 | COc1ccc(Cl)c(OCC2N(c3cc4c(cc3Cl)c(=O)c(C(=O)O)cn4-c3cnnc(N)c3)CCC2(C)C)n1 (stereo not drawn) [Compound 228, 1-(6-Amino-pyridazin-4-yl)-6-chloro-7-(2-(((3-chloro-6-methoxy-pyridin-2-yl)oxy)methyl)-3,3-dimethyl-pyrrolidin-1-yl)-4-oxo-1,4-dihydro-quinoline-3-carboxylic acid] |
| ≥ 6.00 | COc1ccc(Cl)c(OCC2N(c3cc4c(cc3Cl)c(=O)c(C(=O)O)cn4-c3cc(N)cnn3)CCC2(C)C)n1 (stereo not drawn) [Compound 229, 1-(5-Amino-pyridazin-3-yl)-6-chloro-7-(2-(((3-chloro-6-methoxy-pyridin-2-yl)oxy)methyl)-3,3-dimethyl-pyrrolidin-1-yl)-4-oxo-1,4-dihydro-quinoline-3-carboxylic acid] |
| ≥ 6.00 | CO/N=C1/CCN(c2cc3c(cc2Cl)c(=O)c(C(=O)O)cn3-c2ccc(N3CC(N(C)C)C3)nc2)C1COc1nc(OC)ccc1Cl (stereo not drawn) [Compound 232, (Z)-6-chloro-7-(2-(((3-chloro-6-methoxy-pyridin-2-yl)oxy)methyl)-3-(methoxyimino)pyrrolidin-1-yl)-1-(6-(3-(dimethyl-amino)azetidin-1-yl)pyridin-3-yl)-4-oxo-1,4-dihydro-quinoline-3-carboxylic acid] |
| ≥ 6.00 | CO/N=C1\CCN(c2cc3c(cc2Cl)c(=O)c(C(=O)O)cn3-c2ccc(N3CC(N(C)C)C3)nc2)C1COc1nc(OC)ccc1Cl (stereo not drawn) [Compound 233, (E)-6-chloro-7-(2-(((3-chloro-6-methoxy-pyridin-2-yl)oxy)methyl)-3-(methoxyimino)pyrrolidin-1-yl)-1-(6-(3-(dimethyl-amino)azetidin-1-yl)pyridin-3-yl)-4-oxo-1,4-dihydro-quinoline-3-carboxylic acid] |
| ≥ 6.00 | O=C(O)c1cn(-c2ccc3c(c2)CNC3)c2cc(N3CCC[C@@H]3COc3ncccc3Cl)c(Cl)cc2c1=O [Compound 236, 6-chloro-7-[(2R)-2-[[(3-chloropyridin-2-yl)oxy]methyl]pyrrolidin-1-yl]-1-(2,3-dihydro-1H-isoindol-5-yl)-4-oxoquinoline-3-carboxylic acid] |
| ≥ 6.00 | CC(=O)N1Cc2ccc(-n3cc(C(=O)O)c(=O)c4cc(Cl)c(N5CCC[C@@H]5COc5ncccc5Cl)cc43)cc2C1 [Compound 237, 1-(2-acetyl-1,3-dihydro-isoindol-5-yl)-6-chloro-7-[(2R)-2-[[(3-chloropyridin-2-yl)oxy]methyl]pyrrolidin-1-yl]-4-oxoquinoline-3-carboxylic acid] |
| ≥ 6.00 | O=C(O)c1cn(-c2cnc(OCCO)cn2)c2cc(N3CCC[C@@H]3COc3ncccc3Cl)c(Cl)cc2c1=O [Compound 238, 6-chloro-7-[(2R)-2-[[(3-chloropyridin-2-yl)oxy]methyl]pyrrolidin-1-yl]-1-[5-(2-hydroxy-ethoxy)pyrazin-2-yl]-4-oxoquinoline-3-carboxylic acid] |
| ≥ 6.00 | O=C(O)c1cn(-c2cnn(C3CN(CC(F)(F)F)C3)c2)c2cc(N3CCC[C@@H]3COc3ncccc3Cl)c(Cl)cc2c1=O [Compound 239, 6-chloro-7-[(2R)-2-[[(3-chloropyridin-2-yl)oxy]methyl]pyrrolidin-1-yl]-4-oxo-1-[1-[1-(2,2,2-trifluoro-ethyl)azetidin-3-yl]pyrazol-4-yl]quinoline-3-carboxylic acid] |
| ≥ 6.00 | O=C(O)c1cn(-c2cnccn2)c2cc(N3CCC[C@@H]3COc3ncccc3Cl)c(F)cc2c1=O [Compound 240, 7-[(2R)-2-[[(3-chloropyridin-2-yl)oxy]methyl]pyrrolidin-1-yl]-6-fluoro-4-oxo-1-(pyrazin-2-yl)quinoline-3-carboxylic acid] |
| ≥ 6.00 | CCN1CC(n2cc(-n3cc(C(=O)O)c(=O)c4cc(Cl)c(N5CCC[C@@H]5COc5ncccc5Cl)cc43)cn2)C1 [Compound 241] |
| ≥ 6.00 | COCCn1cc(-n2cc(C(=O)O)c(=O)c3cc(C#N)c(N4CCC[C@@H]4COc4ncccc4Cl)cc32)cn1 [Compound 242, 7-[(2R)-2-[[(3-chloropyridin-2-yl)oxy]methyl]pyrrolidin-1-yl]-6-cyano-1-[1-(2-methoxyethyl)pyrazol-4-yl]-4-oxoquinoline-3-carboxylic acid] |
| ≥ 6.00 | O=C(O)c1cn(-c2cnn(C3CNC3)c2)c2cc(N3CCC[C@@H]3COc3ncccc3Cl)c(Cl)cc2c1=O [Compound 243, 1-[1-(azetidin-3-yl)pyrazol-4-yl]-6-chloro-7-[(2R)-2-[[(3-chloropyridin-2-yl)oxy]methyl]pyrrolidin-1-yl]-4-oxoquinoline-3-carboxylic acid] |
| ≥ 6.00 | O=C(O)c1cn(-c2cnn(C3CN(CCF)C3)c2)c2cc(N3CCC[C@@H]3COc3ncccc3Cl)c(Cl)cc2c1=O [Compound 244, 6-chloro-7-[(2R)-2-[[(3-chloropyridin-2-yl)oxy]methyl]pyrrolidin-1-yl]-1-[1-[1-(2-fluoroethyl)azetidin-3-yl]pyrazol-4-yl]-4-oxoquinoline-3-carboxylic acid] |
